The structures appear in SMILES notation. Bounds are passed on as bounds.

In one data set the target is CYP3A4 (Homo sapiens, UniProt P08684). As to the kind of experiment: Cytochrome P450 (CYP450) Inhibition Assay, CYP3A4 (Vivid fluorescence, BOMCC substrate). Conditions: for inhibition at 10 µM: human, P450 Baculosomes (recombinant CYP3A4), probe BOMCC (Vivid substrate).
For another data set, the system named is sodium channel. As to the kind of experiment: Guanidine influx assay (14C-guanidine radiotracer flux, in vitro). The data set is classed as cell-based, human or rat. The following applies: guanidine influx assay using a known cell line that expresses a sodium channel; activity level class. The source says:
This example describes an in vitro assay for testing and profiling test agents against human or rat sodium channels stably expressed in cells of either an endogenous or recombinant origin. The assay is also useful for determining the IC50 of a sodium channel blocking compound. The assay is based on the guanidine flux assay described by Reddy, N. L., et al., J. Med. Chem. (1998), 41(17):3298-302.
The guanidine influx assay is a radiotracer flux assay used to determine ion flux activity of sodium channels in a high-throughput microplate-based format. The assay uses ^14C-guanidine hydrochloride in combination with various known sodium channel modulators, to assay the potency of test agents. Potency is determined by an IC50 calculation. Selectivity is determined by comparing potency of the compound for the channel of interest to its potency against other sodium channels (also called ‘selectivity profiling’).
Each of the test agents is assayed against cells that express the channels of interest. Voltage gated sodium channels are either TTX sensitive or insensitive. This property is useful when evaluating the activities of a channel of interest when it resides in a mixed population with other sodium channels. The following Table 1 summarizes cell lines useful in screening for a certain channel activity in the presence or absence of TTX.
It is also possible to employ recombinant cells expressing these sodium channels. Cloning and propagation of recombinant cells are known to those skilled in the art (see, for example, Klugbauer, N, et al., EMBO J. (1995), 14(6):1084-90; and Lossin, C., et al., Neuron (2002), 34, pp. 877-884).
Cells expressing the channel of interest are grown according to the supplier or in the case of a recombinant cell in the presence of selective growth media such as G418 (Gibco/Invitrogen). The cells are disassociated from the culture dishes with an enzymatic solution (Ix) Trypsin/EDTA (Gibco/Invitrogen) and analyzed for density and viability using haemocytometer (Neubauer). Disassociated cells are washed and resuspended in their culture media then plated into Scintiplates (Beckman Coulter Inc.) (approximately 100,000 cells/well) and incubated at 37° C./5% CO2 for 20-24 hours. After an extensive wash with Low sodium HEPES-buffered saline solution (LNHBSS) (150 mM Choline Chloride, […] (Sigma), 1 mM Calcium Chloride, 5 mM Potassium Chloride, 1 mM Magnesium Chloride, 10 mM Glucose) agents diluted with LNHBSS are added to each well. (Varying concentrations of test agent may be used). The activation/radiolabel mixture contains aconitine (Sigma) to increase the percentage of time that the sodium channels are open, and ^14C-guanidine hydrochloride (ARC) to measure flux through the voltage-gated sodium channels.
After loading the cells with test agent and activation/radiolabel mixture, the Scintiplates are incubated at ambient temperature. Following the incubation, the Scintplates are extensively washed with LNHBSS supplemented with guanidine (Sigma). The Scintiplates are dried and then counted using a Wallac MicroBeta TriLux (Perkin-Elmer Life Sciences). The ability of the test agent to block sodium channel activity is determined by comparing the amount of ^14C-guanidine present inside the cells expressing the different sodium channels.
The IC50 value of a test agent for a specific sodium channel may be determined using the above general method. […] Typically the mid-point concentration of test agent is set at 1 μM, and sequential concentrations of half dilutions greater or smaller are applied (e.g. 0.5 μM; 5 μM and 0.25 μM; 10 μM and 0.125 μM; 20 μM etc.). The IC50 curve is calculated using the 4 Parameter Logistic Model or Sigmoidal Dose-Response Model formula (fit=(A+((B−A)/(1+((C/x)^D)))).
The fold selectivity, factor of selectivity or multiple of selectivity, is calculated by dividing the IC50 value of the test sodium channel by the reference sodium channel, for example, Nav1.5. […]

CYP3A4, sequence (P08684 whole entry): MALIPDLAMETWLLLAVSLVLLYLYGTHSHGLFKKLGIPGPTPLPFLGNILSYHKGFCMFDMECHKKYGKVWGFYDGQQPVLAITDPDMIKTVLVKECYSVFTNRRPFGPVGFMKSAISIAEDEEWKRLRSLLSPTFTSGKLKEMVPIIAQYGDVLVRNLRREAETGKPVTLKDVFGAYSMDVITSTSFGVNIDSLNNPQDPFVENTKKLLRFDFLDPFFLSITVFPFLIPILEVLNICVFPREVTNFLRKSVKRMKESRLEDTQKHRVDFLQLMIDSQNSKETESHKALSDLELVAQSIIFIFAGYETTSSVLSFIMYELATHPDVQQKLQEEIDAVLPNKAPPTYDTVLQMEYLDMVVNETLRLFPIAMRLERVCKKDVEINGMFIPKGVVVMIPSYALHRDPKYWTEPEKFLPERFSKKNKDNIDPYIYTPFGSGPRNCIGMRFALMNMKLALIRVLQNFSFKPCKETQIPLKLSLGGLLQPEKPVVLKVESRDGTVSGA

In the case of `CC(C)NC(=O)N1CCC(CN2C(=O)C3(COc4cc5c(cc43)CCO5)c3ccccc32)C1` (stereo not shown) [11.62, N-(1-methylethyl)-3-[(2′-oxo-5,6-dihydrospiro[benzo[1,2-b:5,4-b′]difuran-3,3′-indol]-1′(2′H)-yl)methyl]pyrrolidine-1-carboxamide], on CYP3A4, the inhibition at 10 µM is above 50%.
For the compound `O=C1N(Cc2cc(Br)cs2)c2ccccc2C12COc1cc3c(cc12)OCO3` (stereo not shown) [Example 1.7, 1′-[(4-bromo-2-thienyl)methyl]spiro[furo[2,3-f][1,3]benzodioxole-7,3′-indol]-2′(1′H)-one], in the data set with sodium channel, the IC50 lay in the range of 0.001 to 0.1 µM. The inhibition at 10 µM on CYP3A4 is above 50%.
The like results for `COc1cncc(N2C(=O)C3(COc4cc5c(cc43)OCO5)c3ccccc32)c1` (stereo not shown) [Example 1.17, 1′-(5-methoxypyridin-3-yl)spiro[furo[2,3-f][1,3]benzodioxole-7,3′-indol]-2′(1′H)-one] were, in that order, 0.1 to 1 µM and above 50%.
`O=C1N(Cc2ccc(C(F)(F)F)o2)c2ccccc2C12COc1cc(Br)ccc12` (stereo not shown) [Example 2.22, 6-bromo-1′-((5-(trifluoromethyl)furan-2-yl)methyl)-2H-spiro[benzofuran-3,3′-indolin]-2′-one]: the IC50 in the data set with sodium channel was 1 to 10 µM. Besides, the inhibition at 10 µM on CYP3A4 was above 50%.
As for `O=C1N(Cc2ccc(C(F)(F)F)o2)c2ccccc2C12COc1ccc(Br)cc12` (stereo not shown) [Example 2.23, 5-bromo-1′-((5-(trifluoromethyl)furan-2-yl)methyl)-2H-spiro[benzofuran-3,3′-indolin]-2′-one], the IC50 in the data set with sodium channel fell in the range of 0.1 to 1 µM. Besides, on CYP3A4, the inhibition at 10 µM is above 50%.
Consider `O=C1N(C[C@H]2CCCO2)c2ccccc2C12COc1cc3c(cc12)COCO3` (stereo partly drawn) [Example 2.31, 1′-[(2R)-tetrahydrofuran-2-ylmethyl]-4H-spiro[furo[3,2-g][1,3]benzodioxine-6,3′-indol]-2′(1′H)-one], for which the IC50 in the data set on sodium channel is 1 to 10 µM. The inhibition at 10 µM on CYP3A4 was above 50%.
The like results for `COc1ccc(CN2C(=O)C3(COc4cc5c(cc43)OCCO5)c3c2ccc2ncsc32)cc1` (stereo not shown) [Example 2.66, 6′-(4-methoxybenzyl)-2,3-dihydrospiro[furo[2,3-g][1,4]benzodioxine-8,8′-[1,3]thiazolo[5,4-e]indol]-7′(6′H)-one] were, in that order, 0.1 to 1 µM and above 50%.
On to `O=C1Nc2ccccc2C12COc1cc(Br)ccc12` (stereo not shown) [Example 3.2, 6-bromospiro[1-benzofuran-3,3′-indol]-2′(1′H)-one], for which the IC50 in the data set with sodium channel fell in the range of 1 to 10 µM. The inhibition at 10 µM at CYP3A4 is above 50%.
The like results for `O=C1Nc2ccccc2C12COc1ccc(F)cc12` (stereo not shown) [Example 3.8, 5-fluoro-spiro[1-benzofuran-3,3′-indol]-2′(1′H)-one] were, in that order, 1 to 10 µM and above 50%.
The like results for `O=C1Nc2ccccc2C12CCOc1cc3c(cc12)CCO3` (stereo not shown) [Example 3.24, 2,3,6,7-tetrahydrospiro[furo[3,2-g]chromene-5,3′-indol]-2′(1′H)-one] were, in that order, 1 to 10 µM and below 50%.
The like results for `O=C1Nc2cccc(Br)c2C12COc1cc3c(cc12)OCCO3` (stereo not shown) [Example 3.32, 4′-bromo-2,3-dihydrospiro[furo[2,3-g][1,4]benzodioxine-8,3′-indol]-2′(1′H)-one] were, in that order, 0.1 to 1 µM and below 50%.
On to `O=C1Nc2ccccc2C12COc1cc3c(cc12)S(=O)(=O)C=C3` (stereo not shown) [Example 3.40, spiro[indole-3,3′-thieno[2,3-f][1]benzofuran]-2(1′H)-one 5,5′-dioxide], for which the IC50 in the data set on sodium channel lay within 1 to 10 µM. Also, the inhibition at 10 µM on CYP3A4 is below 50%.
Taken in the same sequence, the figures for `COCCOc1ccc2c(c1)C1(CO2)C(=O)Nc2ccccc21` (stereo not shown) [Example 3.47, 5-(2-methoxyethoxy)spiro[1-benzofuran-3,3′-indol]-2′(1′H)-one] were 1 to 10 µM and below 50%.
Take `O=C1Nc2ccc3ncsc3c2C12COc1cc3c(cc12)OCCO3` (stereo not shown) [Example 3.49, 2,3-dihydrospiro[furo[2,3-g][1,4]benzodioxine-8,8′-[1,3]thiazolo[5,4-e]indol]-7′(6′H)-one]: in the data set with sodium channel, the IC50 was 1 to 10 µM. The inhibition at 10 µM at CYP3A4 is above 50%.
Taken in the same sequence, the figures for `COc1cc2c(c(OC)c1)C1(COc3cc4c(cc31)OCCO4)C(=O)N2` (stereo not shown) [Example 3.50, 4′,6′-dimethoxy-2,3-dihydrospiro[furo[2,3-g][1,4]benzodioxine-8,3′-indol]-2′(1′H)-one] were 1 to 10 µM and below 50%.
Take `CCCCCCN1C(=O)C2(COc3cc4c(cc32)OCCO4)c2ccccc21` (stereo not shown) [Example 7.5, 1′-hexyl-2,3-dihydrospiro[furo[2,3-g][1,4]benzodioxine-8,3′-indol]-2′(1′H)-one]: the inhibition at 10 µM at CYP3A4 is above 50%.
Consider `O=C1N(CCC2CC2)c2ccccc2C12COc1cc3c(cc12)OCCO3` (stereo not shown) [Example 7.6], for which, at CYP3A4, the inhibition at 10 µM is below 50%.
Same read-out and setting: the result for `CCOCCN1C(=O)C2(COc3cc4c(cc32)OCCO4)c2ccccc21` (stereo not shown) [Example 7.7] reads below 50%.
Same read-out and setting: the result for `COCCCN1C(=O)C2(COc3cc4c(cc32)OCCO4)c2ccccc21` (stereo not shown) [Example 7.9] reads below 50%; that for `O=C1N(C[C@H]2CCCO2)c2ccccc2[C@]12COc1cc3c(cc12)CCO3` [Example 11.62, (3S)-1′-[(2R)-tetrahydrofuran-2-ylmethyl]-5,6-dihydrospiro[benzo[1,2-b:5,4-b′]difuran-3,3′-indol]-2′(1′H)-one], below 50%; that for `CN(C)C(=O)c1cccc2c1C1(COc3cc4c(cc31)OCCO4)C(=O)N2C` (stereo not shown) [Example 16.78, N,N,1′-trimethyl-2′-oxo-1′,2,2′,3-tetrahydrospiro[furo[2,3-g][1,4]benzodioxine-8,3′-indole]-4′-carboxamide], below 50%.
Still for that read-out and setting: the figure for `CN1C(=O)C2(COc3cc4c(cc32)OCCO4)c2c(Oc3cccc(N4CCOCC4)c3)cccc21` (stereo not shown) [Example 16.81, 1′-methyl-4′-(3-morpholin-4-ylphenoxy)-2,3-dihydrospiro[furo[2,3-g][1,4]benzodioxine-8,3′-indol]-2′(1′H)-one] is above 50%.
On to `COc1ccc(Oc2cccc3c2C2(COc4cc5c(cc42)OCCO5)C(=O)N3C)cn1` (stereo not shown) [Example 16.82, 4′-[(6-methoxypyridin-3-yl)oxy]-1′-methyl-2,3-dihydrospiro[furo[2,3-g][1,4]benzodioxine-8,3′-indol]-2′(1′H)-one], for which the inhibition at 10 µM on CYP3A4 was below 50%.
On the same count and under the same terms, the result for `CN1C(=O)C2(COc3cc4c(cc32)OCCO4)c2c(Oc3ccc4c(c3)OCO4)cccc21` (stereo not shown) [Example 16.83, 4′-(1,3-benzodioxol-5-yloxy)-1′-methyl-2,3-dihydrospiro[furo[2,3-g][1,4]benzodioxine-8,3′-indol]-2′(1′H)-one] reads above 50%; that for `CN1C(=O)C2(COc3cc4c(cc32)OCCO4)c2c(OCc3ccc(F)cc3)cccc21` (stereo not shown) [Example 16.86, 1′-methyl-4-(4-fluorobenzyloxy)-2,3-dihydrospiro[furo[2,3-g][1,4]benzodioxine-8,3′-indol]-2′(1′H)-one], above 50%.
For the compound `CC(=O)c1cccc2c1C1(COc3cc4c(cc31)OCCO4)C(=O)N2C` (stereo not shown) [Example 24, 4′-acetyl-t-methyl-2,3-dihydrospiro[furo[2,3-g][1,4]benzodioxine-8,3′-indol]-2′(1′H)-one], the “% Inhibition of CYP3A4” value at CYP3A4 (at 10 μM) is on record as “A (percent inhibition of less than 50% at 10 μM)”.

For orientation: inhibition means the relative decrease from the control value, in per cent. As a reminder, the IC50 is the concentration that gives 50% inhibition.

For the origin of these results see patent US8263606B2 (Xenon Pharmaceuticals Inc., priority 2008, dated 2012).
